Counter-ions that a name gives are not always drawn. Like-named read-outs stand apart in the source and are kept apart here.
Key:
SHV-5 β-lactamase = target: T1, SHV-5 β-lactamase (Klebsiella pneumoniae, UniProt P0A3M1); test: β-lactamase enzyme inhibition assay (nitrocefin substrate), SHV-5; format: biochemical
T1 construct: expressed as native untagged proteins; made in house; host or cells: E. coli BL21(DE3)
Protocol: (§1) Isolation of β-lactamases. For SHV-5, p99 AmpC, KPC-2 and CTX-M15 β-lactamases, E. coli BL21(DE3) bacterial cells carrying expression plasmids (expressed as native untagged proteins) for the individual β-lactamases were grown in 1 L of Superbroth (Teknova Inc. Hollister, Calif.) supplemented with 100 μg/ml kanamycin and 1×5052 (0.5% glycerol, 0.05% glucose and 0.2% α-lactose) at 35° C. for 18-20 hours. Cells were harvested by centrifugation (4,000×g, 4° C., 20 min), and resuspended in 50 ml of 10 mM HEPES pH 7.5 (1/20 of the initial volume). The cells were lysed by sonication (5 pulses of 45 seconds) at 45 W on ice. The lysates were clarified by centrifugation at 10,000×g for 40 minutes at 4° C. Samples were diluted 5-fold in 50 mM sodium acetate pH 5.0, stored overnight at 4° C., after which they were centrifuged at 10,000×g for 30 minutes to clarify, and filtered through 0.45 μm filters. The samples were loaded onto a 5 ml Capto S sepharose cation exchange column (GE Healthcare) pre-equilibrated with 50 mM sodium acetate pH 5.0. The column was washed with 5 column volumes of 50 mM sodium acetate pH 5.0 to wash out unbound protein and a linear gradient of NaCl (0 to 500 mM) was used to elute the protein (over 16 CV) from the column. Fractions were assayed for β-lactamase activity using Centa (Calbiochem, Gibbstown, N.J.) as a reporter β-lactamase substrate for activity in the isolated fractions. Active fractions were pooled, concentrated and further purified by gel filtration chromatography on a Superdex 75 prep grade gel filtration column (GE Healthcare, Piscataway, N.J.) pre-equilibrated in 50 mM Hepes pH 7.5, 150 mM NaCl. Active fractions were pooled concentrated, quantitated by BCA protein determination (Thermo Scientific, Rockford, Ill.), and frozen at −80° C. in 20% glycerol until use.
(§2) β-lactamase Inhibition. To determine the level of inhibition of β-lactamase enzymes, compounds were diluted in PBS at pH 7.0 to yield concentrations between 100 and 0.005 μM in microtiter plates. An equal volume of diluted enzyme stock was added, and the plates were incubated at 37° C. for 10 min. Nitrocefin solution was then dispensed as substrate into each well at a final concentration of 100 μM, and the plates were immediately read with the kinetic program at 486 nm for 10 min on the SPECTRAMAX® Plus^384 (high-throughput microplate spectrophotometer; Molecular Devices Corp., Sunnyvale, Calif.). Maximum rates of metabolism were then compared to those in control wells (without inhibitors), and percentages of enzyme inhibition were calculated for each concentration of inhibitor. The concentration of inhibitor needed to reduce the initial rate of hydrolysis of substrate by 50% (IC50) was calculated as the residual activity of β-lactamase at 486 nm using the SoftMax Pro 5.0 software (Molecular Devices Corp.).
(§3) Using the methodology described above, examples of the current invention were evaluated for their ability to inhibit β-lactamase enzymes. The results of these assays are summarized in Table 2 for representative enzymes across different subtypes (note SHV-5 and CTXM-15 exemplify different subclasses of Ambler Class A Extended Spectrum Beta Lactamases, KPC-2 exemplifies Class A carbapenemases, P99 represents chromosomal Class C AmpC, VIM-2 exemplifies subclass B1 of metallo-β-lactamases, and OXA-23 represents chromosome-encoded Class D oxacillin-hydrolyzing β-lactamases), NT=not tested.

CTX-M15 β-lactamase = target: T2, CTX-M15 β-lactamase (Escherichia coli, UniProt Q9EXV5); test: β-lactamase enzyme inhibition assay (nitrocefin substrate), CTXM-15; format: biochemical
T2 construct: expressed as native untagged proteins; made in house; host or cells: E. coli BL21(DE3)
T2 sequence (Q9EXV5 entry or part of it): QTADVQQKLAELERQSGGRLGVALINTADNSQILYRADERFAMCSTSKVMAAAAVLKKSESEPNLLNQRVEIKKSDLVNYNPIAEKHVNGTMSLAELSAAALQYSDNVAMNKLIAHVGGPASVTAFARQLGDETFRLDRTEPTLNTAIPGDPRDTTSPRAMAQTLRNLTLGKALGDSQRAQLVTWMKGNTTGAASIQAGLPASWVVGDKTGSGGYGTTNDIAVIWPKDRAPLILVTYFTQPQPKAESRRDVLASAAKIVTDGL
Protocol: as §1, §2, §3

p99 AmpC β-lactamase = target: T3, p99 AmpC β-lactamase (Enterobacter cloacae, UniProt P05364); test: β-lactamase enzyme inhibition assay (nitrocefin substrate), P99 AmpC; format: biochemical
T3 construct: expressed as native untagged proteins; made in house; host or cells: E. coli BL21(DE3)
T3 sequence (P05364 21-381): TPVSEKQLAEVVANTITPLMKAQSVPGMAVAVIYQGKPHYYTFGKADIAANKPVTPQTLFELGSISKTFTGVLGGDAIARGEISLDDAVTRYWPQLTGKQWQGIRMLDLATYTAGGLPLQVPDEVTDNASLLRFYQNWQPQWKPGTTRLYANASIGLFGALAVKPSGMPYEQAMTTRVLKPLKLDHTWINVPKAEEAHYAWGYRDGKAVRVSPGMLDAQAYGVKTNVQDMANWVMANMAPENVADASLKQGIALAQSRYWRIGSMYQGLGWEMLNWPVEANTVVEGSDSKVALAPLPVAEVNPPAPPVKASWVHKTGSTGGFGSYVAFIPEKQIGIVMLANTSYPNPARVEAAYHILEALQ
Protocol: as §1, §2, §3

KPC-2 β-lactamase = target: T4, KPC-2 β-lactamase (Klebsiella pneumoniae, UniProt Q9F663); test: β-lactamase enzyme inhibition assay (nitrocefin substrate), KPC-2; format: biochemical
T4 construct: expressed as native untagged proteins; made in house; host or cells: E. coli BL21(DE3)
T4 sequence (Q9F663 25-293 limits assumed): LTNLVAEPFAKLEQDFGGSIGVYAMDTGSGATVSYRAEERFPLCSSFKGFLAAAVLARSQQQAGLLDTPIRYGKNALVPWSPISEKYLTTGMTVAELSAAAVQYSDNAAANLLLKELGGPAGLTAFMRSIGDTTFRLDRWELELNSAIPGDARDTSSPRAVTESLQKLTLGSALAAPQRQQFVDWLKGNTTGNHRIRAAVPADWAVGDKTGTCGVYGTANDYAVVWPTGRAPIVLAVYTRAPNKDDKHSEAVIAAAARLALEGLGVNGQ
Protocol: as §1, §2, §3

[1] = target: T5, VIM-2 metallo β-lactamase (Pseudomonas aeruginosa, UniProt Q9K2N0); test: β-lactamase enzyme inhibition assay (nitrocefin substrate), VIM-2; format: biochemical; conditions: nitrocefin 100 μM, 37° C., PBS pH 7.0; read-out: VIM-2 IC50
T5 construct: made in house
Protocol: as §1
For VIM-2 metallo (β-lactamase, the procedure was identical with the following exceptions: 1) the protein was not pH adjusted to pH 5 with 50 mM sodium acetate, 2) the chromatography step was changed to a 5 ml Q sepharose anion exchange column pre-equilibrated with 50 mM Hepes pH 7.5, and 3) elution of the protein was achieved by a linear gradient of NaCl (0-600 mM). Finally, the VIM-2 purification required a second run (3rd step) on the Q sepharose anion exchange column to achieve acceptable purity (>90%).
as §2, §3

OXA-23 β-lactamase = target: T6, OXA-23 β-lactamase (Acinetobacter baumannii, UniProt Q9L4P2); test: β-lactamase enzyme inhibition assay (nitrocefin substrate), OXA-23 crude extract; format: biochemical; conditions: nitrocefin 100 μM, 37° C., PBS pH 7.0; read-out: OXA-23 IC50
T6 construct: crude β-lactamase extracts were prepared from 20 ml overnight cultures; endogenous in cells; host or cells: Acinetobacter baumannii cells containing OXA-23 (crude freeze-thaw extract)
T6 sequence (Q9L4P2 18-273): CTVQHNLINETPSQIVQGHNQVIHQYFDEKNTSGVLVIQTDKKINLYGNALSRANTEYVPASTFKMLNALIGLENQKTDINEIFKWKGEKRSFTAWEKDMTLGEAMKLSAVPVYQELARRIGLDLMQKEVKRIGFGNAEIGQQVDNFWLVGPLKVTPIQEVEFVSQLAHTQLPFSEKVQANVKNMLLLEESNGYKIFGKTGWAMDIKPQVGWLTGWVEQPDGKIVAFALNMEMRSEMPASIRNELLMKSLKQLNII
Protocol: For OXA-23 β-lactamase, crude β-lactamase extracts were prepared from 20 ml overnight cultures with shaking. Acenitobacter baumanni cells containing OXA-23 were further diluted 10-fold and grown to mid-log phase (OD at 600 nm, 0.5-0.8) in Mueller-Hinton II (MH-II) broth at 37° C. The cells were pelleted at 5000 g, washed and resuspended in 2 mL PBS pH 7.0. The β-lactamases were extracted by four cycles of freezing and thawing followed by centrifugation. β-lactamase activity in the extracts was measured with the chromogenic cephalosporin nitrocefin. The amount of protein in each β-lactamase preparation was determined by the bicinchoninic acid (BCA) assay.
as §2

[2] = tested on: E. coli expressing the Class A ESBL SHV-5; test: In vitro antibacterial assay of β-lactamase inhibition (broth microdilution MIC), E. coli SHV-5; format: cell-based
Source text: (§4) To determine the ability of test compounds to potentiate the inhibition of the growth of bacterial strains producing beta-lactamase enzymes, classic cell based screening assays were employed. Five bacteria strains producing beta-lactamase enzymes were used: K. pneumoniae expressing the Class A Extended Spectrum Beta-Lactamase (ESBL) CTX-M-15, E. coli expressing the Class A ESBL SHV-5, E. cloacae expressing the Class C P99+, K. pneumoniae expressing the Class A carbapenemase KPC-2, and P. aeruginosa expressing the Class B metallo β-lactamase VIM-2. In order to evaluate the ability of test compounds to inhibit beta-lactamase activity, Applicants used a modification of the broth microdilution assay. The assay was conducted in Cation Adjusted Mueller Hinton Broth (CAMHB, BD # 212322, BD Diagnostic Systems, Sparks, Md.). Bacteria strains were grown for 3-5 hours in CAMBH broth. All five strains were grown in presence of 50 μg/mL ampicillin to ensure resistance is maintained. In the meantime, test compounds were diluted in DMSO to a 0.1 mg/mL stock. The compounds were added to a microtiter plate and were diluted in 2-fold serial dilutions in CAMHB in a final concentration range of 8 μg/mL to 0.015 μg/ml. […] Each of these compound plates are made in quadruplicate, one for each bacteria strain. In addition to the titration of test compounds the MICs of a panel of cephalosporins is also tested to ensure the strains are behaving consistently from test to test. Once the test compound and cephalosporin are added the plates can be inoculated. Inocula are conducted according to CLSI broth microdilution method. After inoculation the plates are incubated for 16-20 hours at 37° C. then the Minimal Inhibitory Concentration (MIC) of the test compound is determined visually.
(§5) Using the methodology described above, examples of the current invention were evaluated for their ability to inhibit the growth of β-lactamase producing bacteria in the presence of a β-lactam antibiotic.

[3] = tested on: K. pneumoniae expressing the Class A Extended Spectrum Beta-Lactamase (ESBL) CTX-M-15; test: In vitro antibacterial assay of β-lactamase inhibition (broth microdilution MIC), K. pneumoniae CTX-M-15; format: cell-based
Source text: as §4, §5

[4] = tested on: E. cloacae expressing the Class C P99+; test: In vitro antibacterial assay of β-lactamase inhibition (broth microdilution MIC), E. cloacae P99+; format: cell-based
Source text: as §4, §5

[5] = tested on: K. pneumoniae expressing the Class A carbapenemase KPC-2; test: microbe, parasite or virus in culture; format: cell-based
Source text: as §4, §5

[6] = tested on: P. aeruginosa expressing the Class B metallo β-lactamase VIM-2; test: In vitro antibacterial assay of β-lactamase inhibition (broth microdilution MIC), P. aeruginosa VIM-2; format: cell-based; conditions: in presence of Ceftazidime 16 μg/mL (Examples 1-56)
Source text: as §4, §5

[7] = in presence of Ceftazidime 8 μg/ml (Examples 1-56)
[8] = nitrocefin 100 μM, 37° C., PBS pH 7.0, read-out: P99 AmpC IC50
[9] = in presence of Piperacillin 16 μg/ml (Examples 57-65)

T1 sequence (P0A3M1 22-286): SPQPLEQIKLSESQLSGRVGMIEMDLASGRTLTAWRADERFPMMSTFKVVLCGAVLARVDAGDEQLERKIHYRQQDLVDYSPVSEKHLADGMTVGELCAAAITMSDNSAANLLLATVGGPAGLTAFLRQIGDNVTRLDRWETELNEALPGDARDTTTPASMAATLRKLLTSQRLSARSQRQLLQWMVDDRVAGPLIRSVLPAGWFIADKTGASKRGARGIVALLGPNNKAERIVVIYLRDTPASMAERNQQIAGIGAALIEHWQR

Compound	IC50 (SHV-5 β-lactamase)	IC50 (CTX-M15 β-lactamase)	IC50 (p99 AmpC β-lactamase)	IC50 (KPC-2 β-lactamase)	IC50 [1]	IC50 (OXA-23 β-lactamase)	MIC of example compound, E. coli SHV-5 [2, 7]	MIC of example compound, K. pneumoniae CTX-M-15 [3, 7]	MIC of example compound, E. cloacae P99+ [4, 7]	MIC of example compound, K. pneumoniae KPC-2 [5, 7]	IC50 (p99 AmpC β-lactamase; [8])	MIC of example compound, P. aeruginosa VIM-2 [6]	MIC of example compound, E. coli SHV-5 [2, 9]	MIC of example compound, K. pneumoniae CTX-M-15 [3, 9]	MIC of example compound, E. cloacae P99+ [4, 9]	MIC of example compound, K. pneumoniae KPC-2 [5, 9]
O=C(N[C@@H](Cc1cccc(C(=O)O)c1O)B(O)O)c1ccc(CN2CCNCC2)cc1 [Example 5, 2(R)-3-[2-(4-(1-piperazinylmethyl)benzoylamino)-2-borono-ethyl]-2-hydroxy-benzoic acid Hydrochloride]	> 1000 nM	6 nM	1 nM	1 nM	510 nM	> 1000 nM	4 µg/mL	1 µg/mL	2 µg/mL	0.03 µg/mL						
CCNCc1ccc(C(=O)N[C@@H](Cc2cccc(C(=O)O)c2O)B(O)O)cc1.Cl [Example 6, 2(R)-3-[2-(4-(N-ethylaminomethyl)benzoylamino)-2-borono-ethyl]-2-hydroxy-benzoic acid Hydrochloride]	> 1000 nM	4 nM		4 nM	57 nM	> 1000 nM	4 µg/mL	1 µg/mL	0.25 µg/mL	0.03 µg/mL	1 nM					
Cl.Nc1ccc(C(=O)N[C@@H](Cc2cccc(C(=O)O)c2O)B(O)O)cn1 [Example 7, (2R)-3-{2-[(2-Amino-pyridine-5-carbonyl)-amino]-2-borono-ethyl}-2-hydroxy-benzoic acid formate salt]	320 nM	1 nM		4 nM	820 nM	508 nM	1 µg/mL	0.12 µg/mL	0.12 µg/mL	0.03 µg/mL	1 nM					
O=C(Cc1ccc(C[n+]2ccccc2)cc1)N[C@@H](Cc1cccc(C(=O)O)c1O)B(O)O [Example 42, formate]	2 nM	4 nM	4 nM	10 nM	> 1000 nM	153 nM										
Nc1ccc(CC(=O)N[C@@H](Cc2cccc(C(=O)O)c2O)B(O)O)cn1 [Example 46, (1R)-1-(6-amino-pyridin-3-yl-acetylamino)-2-(2-hydroxy-3-carboxyphenyl)ethyl-1-boronic acid formate]	0.7 nM	5 nM		3 nM		209 nM	0.06 µg/mL	0.03 µg/mL	0.06 µg/mL	0.007 µg/mL	4 nM	>8 µg/mL				
NCc1ccc(/C(=N/O)C(=O)N[C@@H](Cc2cccc(C(=O)O)c2O)B(O)O)cc1 [Example 53, 3-{2(R)-[2-(4-aminomethyl-phenyl)-2-hydroxyimino-acetylamino]-2-borono-ethyl}-2-hydroxy-benzoic acid hydrochloride]	29 nM	12 nM		39 nM	312 nM	350 nM										
O=C(Cc1ccc(CNc2ccccn2)cc1)N[C@@H](Cc1cccc(C(=O)O)c1O)B(O)O [Example 57, (1R)-1-{2-[4-(pyridin-2-ylaminomethyl)-phenyl]-acetylamino}-1-[(3-carboxy-2hydroxy)benzyl]-methylboronic acid formate]	2 nM	4 nM		13 nM		156 nM					3 nM		1 µg/mL	>8 µg/mL	4 µg/mL	4 µg/mL
O=C(O)CNCc1ccc(CC(=O)N[C@@H](Cc2cccc(C(=O)O)c2O)B(O)O)cc1 [Example 58, (1R)-1-(2-{4-[(1-Carboxymethyl-amino)-methyl]-phenyl}-acetylamino)1-[(3-carboxy-2-hydroxy)benzyl]-methylboronic acid formate]	0.5 nM	4 nM		13 nM		182 nM					6 nM		0.5 µg/mL	>8 µg/mL	2 µg/mL	0.5 µg/mL

Source: US20100292185A1, “BETA-LACTAMASE INHIBITORS” (priority 2009, published 2010)
